Some results are limits rather than exact numbers.

The assay deals with T1, HPK1 (Homo sapiens, UniProt Q92918).
T1 construct: A HiBiT tag was introduced by CRISPR on the N terminus of HPK1 in Jurkat cells; host or cells: Jurkat cells (ATCC TIB-152), monoclonal line with CRISPR knock-in of HiBiT at the endogenous HPK1 locus
The assay is described as follows: HPK1 Cellular HiBit Degradation Assay. The format is cell-based. The conditions noted are these: HiBiT HPK1 Jurkat cells, 24 hrs; for DC50: concentration at which 50% of HPK1 was remaining, read-out: DC50 Category; for Dmax: Jurkat, maximum degradation vs DMSO vehicle control, read-out: Dmax Category. In a few lines: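 Jurkat cells with CRISPR knock-in N-terminal HiBiT-HPK1 were treated with CTMs (11-point, 3.16-fold, 10 uM to 0.1 nM final) for 24 hrs at 37° C. HiBiT lytic luminescence, with parental Jurkat as background and DMSO as 100%, gave % HPK1 remaining; four-parameter fit yielded DC50 and Dmax (100 minus lowest % remaining).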

T1 sequence (Q92918 whole entry): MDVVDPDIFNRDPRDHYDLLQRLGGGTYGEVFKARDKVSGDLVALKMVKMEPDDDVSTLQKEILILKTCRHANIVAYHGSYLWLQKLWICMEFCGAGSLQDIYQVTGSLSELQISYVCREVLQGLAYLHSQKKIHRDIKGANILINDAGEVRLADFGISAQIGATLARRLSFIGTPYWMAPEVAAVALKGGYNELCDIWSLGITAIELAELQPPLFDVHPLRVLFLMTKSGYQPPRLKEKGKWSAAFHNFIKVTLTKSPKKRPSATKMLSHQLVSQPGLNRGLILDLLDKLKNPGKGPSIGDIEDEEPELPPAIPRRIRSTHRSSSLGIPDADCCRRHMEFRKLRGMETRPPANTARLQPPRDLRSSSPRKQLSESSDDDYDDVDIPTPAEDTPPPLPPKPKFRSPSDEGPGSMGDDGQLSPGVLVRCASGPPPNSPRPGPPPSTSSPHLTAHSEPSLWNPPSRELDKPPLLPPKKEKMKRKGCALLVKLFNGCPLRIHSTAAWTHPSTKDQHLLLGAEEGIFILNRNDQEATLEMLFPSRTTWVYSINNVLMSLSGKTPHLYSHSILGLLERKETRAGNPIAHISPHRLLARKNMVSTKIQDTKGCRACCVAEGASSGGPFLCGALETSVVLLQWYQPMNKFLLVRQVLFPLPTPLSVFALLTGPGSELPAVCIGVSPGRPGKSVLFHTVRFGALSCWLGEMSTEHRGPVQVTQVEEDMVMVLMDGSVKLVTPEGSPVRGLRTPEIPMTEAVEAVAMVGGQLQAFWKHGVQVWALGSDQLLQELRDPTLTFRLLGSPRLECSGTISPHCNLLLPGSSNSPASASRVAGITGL

With `CC(C)n1cnc2cc(-c3ccc4c(c3)N([C@H]3C[C@@H](N5CCCCC5)C3)C(=O)C43CCN(C(=O)C4CN(C(=O)C5CCN(c6ccc(C7CCC(=O)NC7=O)cn6)CC5)CC5(CCC5)C4)CC3)nc(NC3CC3)c21` (mixture of isomers) [Example 267, (3RS)-3-(6-{4-[8-({6-[4-(cyclopropylamino)-3-(propan-2-yl)-3H-imidazo[4,5-c]pyridin-6-yl]-2-oxo-1-[(1S,3S)-3-(piperidin-1-yl)cyclobutyl]-1,2-dihydrospiro[indole-3,4′-piperidin]-1′-yl}carbonyl)-6-azaspiro[3.5]nonane-6-carbonyl]piperidin-1-yl}pyridin-3-yl)piperidine-2,6-dione], the DC50 (usually the concentration giving 50% degradation) was under 100 nM and the Dmax (in general, the greatest extent of degradation seen) was in the range of 50 to 70%.
The like results for `CC(C)n1cnc2cc(-c3ccc4c(c3)N([C@H]3C[C@@H](N5CCCCC5)C3)C(=O)C43CCN(C(=O)C4CN(C(=O)C5CCN(c6ccc(C7CCC(=O)NC7=O)cc6)CC5)CC(F)(F)C4)CC3)nc(NC3CC3)c21` (mixture of isomers) [Example 268, (3RS)-3-(4-{4-[5-({6-[4-(cyclopropylamino)-3-(propan-2-yl)-3H-imidazo[4,5-c]pyridin-6-yl]-2-oxo-1-[(1S,3S)-3-(piperidin-1-yl)cyclobutyl]-1,2-dihydrospiro[indole-3,4′-piperidin]-1′-yl}carbonyl)-3,3-Difluoropiperidine-1-carbonyl]piperidin-1-yl}phenyl)piperidine-2,6-dione] were, in that order, 100 to 500 nM and 50 to 70%.
Take `CC(C)n1cnc2cc(-c3ccc4c(c3)N([C@H]3C[C@@H](N5CCCCC5)C3)C(=O)C43CCN(C(=O)C4CCN(C(=O)C5CCN(c6ccc(C7CCC(=O)NC7=O)cn6)CC5)C5(CC5)C4)CC3)nc(NC3CC3)c21` (mixture of isomers) [Example 269, (3RS)-3-(6-{4-[7-({6-[4-(cyclopropylamino)-3-(propan-2-yl)-3H-imidazo[4,5-c]pyridin-6-yl]-2-oxo-1-[(1S,3S)-3-(piperidin-1-yl)cyclobutyl]-1,2-dihydrospiro[indole-3,4′-piperidin]-1′-yl}carbonyl)-4-azaspiro[2.5]Octane-4-carbonyl]piperidin-1-yl}pyridin-3-yl)piperidine-2,6-dione]: the DC50 was under 100 nM and the Dmax lay in the range of 70 to 85%.
Turning to `CC(C)n1cnc2cc(-c3ccc4c(c3)N([C@H]3C[C@@H](N5CCCCC5)C3)C(=O)C43CCN(C(=O)C4CCN(C(=O)C5CCN(c6ccc(C7CCC(=O)NC7=O)cn6)CC5)C5(CCC5)C4)CC3)nc(NC3CC3)c21` (mixture of isomers) [Example 270, (3RS)-3-(6-{4-[8-({6-[4-(cyclopropylamino)-3-(propan-2-yl)-3H-imidazo[4,5-c]pyridin-6-yl]-2-oxo-1-[(1S,3S)-3-(piperidin-1-yl)cyclobutyl]-1,2-dihydrospiro[indole-3,4′-piperidin]-1′-yl}carbonyl)-5-azaspiro[3.5]nonane-5-carbonyl]piperidin-1-yl}pyridin-3-yl)piperidine-2,6-dione], the DC50 is under 100 nM and the Dmax lay within 70 to 85%.
Regarding `CC(C)n1cnc2cc(-c3ccc4c(c3)N([C@H]3C[C@@H](N5CCCCC5)C3)C(=O)C43CCN(C(=O)C45CC(CN(C(=O)C6CCN(c7ccc(C8CCC(=O)NC8=O)cn7)CC6)C4)C5)CC3)nc(NC3CC3)c21` (mixture of isomers) [Example 271, (3RS)-3-(6-{4-[1-({6-[4-(cyclopropylamino)-3-(propan-2-yl)-3H-imidazo[4,5-c]pyridin-6-yl]-2-oxo-1-[(1S,3S)-3-(piperidin-1-yl)cyclobutyl]-1,2-dihydrospiro[indole-3,4′-piperidin]-1′-yl}carbonyl)-3-azabicyclo[3.1.1]heptane-3-carbonyl]piperidin-1-yl}pyridin-3-yl)piperidine-2,6-dione], the DC50 was under 100 nM and the Dmax was 70 to 85%.
The like results for `CC(C)n1cnc2cc(-c3ccc4c(c3)N([C@H]3C[C@@H](N5CCCCC5)C3)C(=O)C43CCN(C(=O)C4CCCN(C(=O)C5CCN(c6ccc(C7CCC(=O)NC7=O)cn6)CC5)C4)CC3)nc(NC3CC3)c21` (mixture of isomers) [Example 272, (3RS)-3-(6-{4-[3-({6-[4-(cyclopropylamino)-3-(propan-2-yl)-3H-imidazo[4,5-c]pyridin-6-yl]-2-oxo-1-[(1S,3S)-3-(piperidin-1-yl)cyclobutyl]-1,2-dihydrospiro[indole-3,4′-piperidin]-1′-yl}carbonyl)piperidine-1-carbonyl]piperidin-1-yl}pyridin-3-yl)piperidine-2,6-dione] were, in that order, under 100 nM and 70 to 85%.
Take `CC(C)n1cnc2cc(-c3ccc4c(c3)N([C@H]3C[C@@H](N5CCCCC5)C3)C(=O)C43CCN(C(=O)C4CCN(C(=O)C5CCN(c6ccc(C7CCC(=O)NC7=O)cn6)CC5)CC4(F)F)CC3)nc(NC3CC3)c21` (mixture of isomers) [Example 273, (3RS)-3-(6-{4-[4-({6-[4-(cyclopropylamino)-3-(propan-2-yl)-3H-imidazo[4,5-c]pyridin-6-yl]-2-oxo-1-[(1S,3S)-3-(piperidin-1-yl)cyclobutyl]-1,2-dihydrospiro[indole-3,4′-piperidin]-1′-yl}carbonyl)-3,3-Difluoropiperidine-1-carbonyl]piperidin-1-yl}pyridin-3-yl)piperidine-2,6-dione]: the DC50 was under 100 nM and the Dmax was in the range of 70 to 85%.
On to `CC(C)n1cnc2cc(-c3ccc4c(c3)N([C@H]3C[C@@H](N5CCCCC5)C3)C(=O)C43CCN(C(=O)C4(O)CCN(C(=O)C5CCN(c6ccc(C7CCC(=O)NC7=O)cc6)CC5)CC4)CC3)nc(NC3CC3)c21` (mixture of isomers) [Example 274, (3RS)-3-(4-{4-[4-({6-[4-(cyclopropylamino)-3-(propan-2-yl)-3H-imidazo[4,5-c]pyridin-6-yl]-2-oxo-1-[(1S,3S)-3-(piperidin-1-yl)cyclobutyl]-1,2-dihydrospiro[indole-3,4′-piperidin]-1′-yl}carbonyl)-4-hydroxypiperidine-1-carbonyl]piperidin-1-yl}phenyl)piperidine-2,6-dione], for which the DC50 was under 100 nM and the Dmax lay in the range of 70 to 85%.
For the compound `CC(C)n1cnc2cc(-c3ccc4c(c3)N([C@H]3C[C@@H](N5CCCCC5)C3)C(=O)C43CCN(C(=O)C4(C(F)(F)F)CCN(C(=O)C5CCN(c6ccc(C7CCC(=O)NC7=O)cn6)CC5)CC4)CC3)nc(NC3CC3)c21` (mixture of isomers) [Example 275, (3RS)-3-(6-{4-[4-({6-[4-(cyclopropylamino)-3-(propan-2-yl)-3H-imidazo[4,5-c]pyridin-6-yl]-2-oxo-1-[(1S,3S)-3-(piperidin-1-yl)cyclobutyl]-1,2-dihydrospiro[indole-3,4′-piperidin]-1′-yl}carbonyl)-4-(trifluoromethyl)piperidine-1-carbonyl]piperidin-1-yl}pyridin-3-yl)piperidine-2,6-dione], the DC50 was 100 to 500 nM and the Dmax was over 85%.
The matching figures for `CC(C)n1cnc2cc(-c3ccc4c(c3)N([C@H]3C[C@@H](N5CCCCC5)C3)C(=O)C43CCN(C(=O)C4(C(F)F)CCN(C(=O)C5CCN(c6ccc(C7CCC(=O)NC7=O)cn6)CC5)CC4)CC3)nc(NC3CC3)c21` (mixture of isomers) [Example 276, (3RS)-3-(6-{4-[4-({6-[4-(cyclopropylamino)-3-(propan-2-yl)-3H-imidazo[4,5-c]pyridin-6-yl]-2-oxo-1-[(1S,3S)-3-(piperidin-1-yl)cyclobutyl]-1,2-dihydrospiro[indole-3,4′-piperidin]-1′-yl}carbonyl)-4-(difluoromethyl)piperidine-1-carbonyl]piperidin-1-yl}pyridin-3-yl)piperidine-2,6-dione]: under 100 nM and over 85%.

The values are drawn from US12091426B2, “Bifunctional degraders of hematopoietic progenitor kinase and therapeutic uses thereof” (Nurix Therapeutics, Inc., priority 2021, dated 2024).
